{
  "source": "patent US20250051391A1",
  "about": "“PEPTIDE INHIBITORS AND METHODS FOR INHIBITING PROTEIN AGGREGATION IN NEURONS AND NEURODEGENERATIVE DISEASES” (THE GOVERNING COUNCIL OF THE UNIVERSITY OF TORONTO, priority 2021, published 2025)",
  "key": {"[1]": {"system": "a-syn oligomers in HEK293 cells", "test": "Oligomers screen (split YFP-a-syn protein fragment complementation, FACS)", "type": "cell-based, human", "description": "To detect a-syn oligomers, a protein fragment complementation assay (PCA) of a-syn oligomerization in HEK293 cells (14) was used. In this assay, human A53T a-syn was fused to either the C- or N-terminal half of yellow fluorescent protein (YFP). No fluorescence is detectable while a-syn exists in monomers but, when a-syn oligomerizes, the two halves of YFP come in close enough proximity to form a functional, spontaneously fluorescent protein. […] By using fluorescence activated cell sorting (FACS), cells expressing Flag-tagged peptides that directly or indirectly interfered with a-syn oligomer formation were isolated and then the peptides were identified from genomic DNA (FIG. 1A). The screens yielded 10 hits (Table 1). The hit with the most reads (i.e., the most abundant) was the same peptide in all screens: IPIQLKA (SEQ ID NO: 1) (PDpep1) (Table 2). […] Lead peptide targets CHMP2B, a member of ESCRT-III\n(§1) PCR primers that included the Illumina adaptor sequences were used to amplify peptide coding sequences recovered from selection and cell sorting. Results were demultiplexed, and peptide counts were tallied. After demultiplexing, only reads with an average quality Phred score of >30 were selected, and frequencies were calculated. Finally, the reads were then normalized to the total number of peptides read for that sample population, and a scalar factor was applied. In parallel, ˜25 individual colonies were Sanger sequenced to compare to the NGS data.\n(§2) Lentiviruses were made in a 15 cm dish format by transfecting packaging cells (293T) with a three-plasmid system as previously described. Viral transduction of HEK293T cells, tet-off split luciferase a-syn cells, tet-off parent cells, and SH-SY5Y cells were performed with a multiplicity of infection of 0.3 (MOI=0.3). Infected cells were selected in puromycin-containing medium to eliminate uninfected cells and three aliquots of cells were collected for sampling of the initial (TO) cell population. Cells were treated with MG132 at concentrations of 0 μM, 10 μM, 25 μM or 50 μM. For the cell viability screen, surviving cells were collected and gDNA was extracted for identification of peptide inhibitors of cell toxicity. For the inhibition of a-syn aggregation screen, split YFP-a-syn constructs were transfected following stable expression of the peptides. Cells were sorted based on their GFP fluorescence intensities with a FACSVantage SE cell sorter (BD Bioscience).\nCells were harvested by trypsin treatment and centrifuged at 500×g for 5 minutes. The pellet was resuspended in ice-cold PBS and centrifuged again. The pellet was then resuspended at a concentration of 4×10^6 cells/ml in the sorting buffer, which is PBS containing 100 Kunitz Dnase l/ml, 10 μg/ml propidium iodide (Sigma) and 2% FBS. The sorting solution was also supplemented with either 10 μM forskolin, 100 μM 5,6-Dichlorobenzimidazole riboside (DRB, Sigma), 10 μM forskolin (Sigma) and 100 μM DRB or DMSO, as a control. The cells were then sent through a 40 μm filter to remove large clumps and loaded into either a FACScan Flow Cytometer (BD Bioscience) for cell analysis or a FACSVantage SE cell sorter (BD Bioscience) for cell sorting. The cells with positive propidium iodide staining (i.e., dead cells) were first eliminated from the analysis or sorting pool. For cell sorting, the desired population, either the most or least bright EGFP-positive cells, according to the purpose of the experiments (see Results), was sorted into either 15 ml conical tubes or 96-well plates, which both contained complete DMEM culture media.\nGenomic DNA (gDNA) from peptide expressing cells at different time-points was extracted using QIAamp DNA Blood Mini Kit. PCR amplifications of peptides from gDNA in parallel with the lentiviral plasmid library (naïve library) were performed using indexed Illumina PCR primers to incorporate both the Illumina adapter sequences and indexing sequences. […]"}, "[2]": {"system": "HEK293 cells overexpressing human a-syn (WT)", "test": "Cytotoxicity screen of lentiviral 7-mer peptide library, Alpha Syn (WT) cells under MG132", "type": "cell-based", "description": "A screening system to discover candidate peptides to perturb endogenous PPIs based on libraries of short linear interaction motifs that mediate a large fraction (˜30%) of human PPIs (10-12) was recently developed. Here, a lentiviral library of 50,549 7-mer peptide motifs (13) on a green fluorescent protein (GFP) scaffold (FIG. 1A) was used. Cells in a pooled format were infected and the amino acid sequence of each peptide served as its own barcode. By using a low multiplicity of infection followed by puromycin selection, each infected cell expressed one unique GFP-peptide. Peptides that reduced a-syn-mediated cytotoxicity or a-syn oligomers in parallel (FIG. 1A), were screened for.\nTo cause cytotoxicity relevant to PD, proteostatic stress in HEK293 cells was induced by inhibiting the proteasome with MG132 and inducing the overexpression of human a-syn (WT) from idiopathic PD in one screen and the more toxic A53T mutant from familial PD in a second screen. The combination of a-syn overexpression and pharmacological proteasome inhibition led to death of most cells, with only those that expressed a protective peptide surviving. By extracting genomic DNA from the surviving cells and amplifying the peptide coding sequences, the protective peptides (FIG. 1A) were identified.\nas §1, §2\nGenomic DNA (gDNA) from peptide expressing cells at different time-points was extracted using QIAamp DNA Blood Mini Kit. PCR amplifications of peptides from gDNA in parallel with the lentiviral plasmid library (naïve library) were performed using indexed Illumina PCR primers to incorporate both the Illumina adapter sequences and indexing sequences. Each 50 μl reaction contained 3.2 μg of template, 2×PCR buffer, 2× enhancer solution, 300 μM each dNTP, 900 nM each of Adapter A (5′-[…]-[…]-3′) (SEQ ID NO: 42) and Adapter B (5′-[…]-[…]-3′) (SEQ ID NO: 43), 1 mM MgSO4, 3.75 units of Platinum Pfx polymerase, and water to 50 μl. The PCR reaction was performed by denaturing at 94° C. for 5 minutes, followed by cycling (94° C. for 30 seconds, 65° C. for 30 seconds, 68° C. for 30 seconds)×28 cycles, 68° C. for 5 minutes, then cooling to 4° C. The resulting 244 bp product was purified by electrophoresis in 2% agarose followed by gel extraction. Peptide libraries were quantified using Quant-It assay (Invitrogen) and pooled. […]"}},
  "data": [
    {"substance": "IPIQLKA [PDpep1, top hit of all screens; maps to CHMP2B residues 203-209]", "values": [
      {"measurement": "Reads Ratio", "setting": "[1]", "value": "1,218.98"},
      {"measurement": "Reads GFP High", "setting": "[1]; FACS fraction GFP High", "value": 12},
      {"measurement": "Reads GFP Inter", "setting": "[1]; FACS fraction GFP Inter", "value": 2853},
      {"measurement": "Reads GFP Neg", "setting": "[1]; FACS fraction GFP Neg", "value": 15556},
      {"measurement": "Slope Norm Reads", "setting": "[2]", "value": 3.45},
      {"measurement": "Reads 0 uM MG132", "setting": "[2]; normalized Illumina peptide counts, 0 uM MG132", "value": 90},
      {"measurement": "Reads 10 UM MG132", "setting": "[2]; normalized Illumina peptide counts, 10 µM MG132", "value": 1},
      {"measurement": "Reads 25 UM MG132", "setting": "[2]; normalized Illumina peptide counts, 25 µM MG132", "value": 1629},
      {"measurement": "Reads 50 UM MG132", "setting": "[2]; normalized Illumina peptide counts, 50 µM MG132", "value": 3375}
    ]}
  ]
}
